Reference: the CheMixHub ionic liquid set

Assay: xn = mol fraction of the nth substance listed

CCCCCCCCCCCCCCCC[n+]1ccccc1.O=C([O-])c1ccccc1O + NCC(=O)O + O
electrical conductivity [S/m], 101 kPa
Settings	293.15 K	298.15 K	303.15 K	308.15 K	313.15 K
x2 = 0.0009002, x1 = 5.4e-07	0.000445	0.000504	0.00057	0.000642	0.000723
x2 = 0.0009002, x1 = 1.26e-06	0.00068	0.000773	0.00087	0.000972	0.00108
x2 = 0.0009002, x1 = 1.63e-06	0.000841	0.000952	0.00107	0.0012	0.00134
x2 = 0.0009002, x1 = 1.99e-06	0.000997	0.00113	0.00127	0.00141	0.00156
x2 = 0.0009002, x1 = 2.35e-06	0.00114	0.00129	0.00145	0.00161	0.00179
x2 = 0.0009002, x1 = 2.89e-06	0.00127	0.00145	0.00164	0.00184	0.00205
x2 = 0.0009002, x1 = 3.43e-06	0.00141	0.00161	0.00185	0.00211	0.00234
x2 = 0.0009002, x1 = 4.16e-06	0.00157	0.0018	0.00206	0.00234	0.00264
x2 = 0.0009002, x1 = 4.88e-06	0.00173	0.00198	0.00226	0.00258	0.00292
x2 = 0.0009002, x1 = 5.6e-06	0.0019	0.00216	0.00247	0.00281	0.00318
x2 = 0.0009002, x1 = 6.32e-06	0.00205	0.00234	0.00267	0.00302	0.00343
x2 = 0.0009002, x1 = 6.87e-06	–	–	–	–	0.00364
x2 = 0.0009002, x1 = 7.05e-06	0.00217	0.0025	0.00284	0.00321	–
x2 = 0.0009002, x1 = 7.59e-06	0.00232	0.00264	0.003	0.00339	0.00383
x2 = 0.0009002, x1 = 8.13e-06	0.00244	0.00278	0.00314	0.00356	0.00402
x2 = 0.0009002, x1 = 8.67e-06	0.00258	0.00292	0.00331	0.00374	0.00421
x2 = 0.001799, x1 = 3.6e-07	0.000498	0.000578	0.00067	0.000776	0.0009
x2 = 0.001799, x1 = 9.1e-07	0.000684	0.000791	0.00091	0.00104	0.00119
x2 = 0.001799, x1 = 1.45e-06	0.000895	0.00102	0.00117	0.00132	0.0015
x2 = 0.001799, x1 = 1.99e-06	0.0011	0.00125	0.00141	0.0016	0.0018
x2 = 0.001799, x1 = 2.17e-06	0.00119	0.00135	0.00153	0.00172	0.00194
x2 = 0.001799, x1 = 2.54e-06	0.00127	0.00145	0.00166	0.00187	0.00209
x2 = 0.001799, x1 = 2.72e-06	0.00134	0.00155	0.00178	0.002	0.00225
x2 = 0.001799, x1 = 3.08e-06	0.0014	0.00162	0.00186	0.0021	0.00237
x2 = 0.001799, x1 = 3.26e-06	–	–	0.00195	0.00223	0.00251
x2 = 0.001799, x1 = 3.44e-06	0.00146	0.00169	–	–	–
x2 = 0.001799, x1 = 3.81e-06	0.00155	0.0018	0.00206	0.00236	0.00267
x2 = 0.001799, x1 = 4.35e-06	0.00167	0.00192	0.0022	0.00253	0.00287
x2 = 0.001799, x1 = 4.89e-06	0.00179	0.00206	0.00236	0.0027	0.00307
x2 = 0.001799, x1 = 5.44e-06	0.00192	0.0022	0.00252	0.00289	0.00328
x2 = 0.001799, x1 = 5.98e-06	0.00202	0.00232	0.00265	0.00303	0.00344
x2 = 0.001799, x1 = 6.34e-06	–	–	–	–	0.00359
x2 = 0.001799, x1 = 6.52e-06	0.00213	0.00244	0.00278	0.00316	–

CCCC[n+]1ccn(C)c1.O=S(=O)([O-])C(F)(F)F + NCCO
Settings	viscosity [mPa·s]
293.15 K, 101 kPa, x2 = 0.3209	52.92

CCCC[n+]1ccn(C)c1.[Cl-] + NCCO
viscosity [mPa·s], 100 kPa
Settings	293 K	303 K	303.1 K	313.1 K	333.2 K
x2 = 0.5	–	–	95.3	57	24.9
x2 = 0.677	62.3	37.1	–	24.1	–
